The results in this text go back to US20230150970A1, “AMINOPYRIMIDINE DERIVATIVES AND THEIR USE AS ARYL HYDROCARBON RECEPTOR MODULATORS” (DONG-A ST CO., LTD., priority 2020, published 2023).

A value given as a limit tells only on which side of the number the result lay.

In the assay the target is T1, AhR (Homo sapiens, UniProt P35869).
T1 sequence (P35869 11-848): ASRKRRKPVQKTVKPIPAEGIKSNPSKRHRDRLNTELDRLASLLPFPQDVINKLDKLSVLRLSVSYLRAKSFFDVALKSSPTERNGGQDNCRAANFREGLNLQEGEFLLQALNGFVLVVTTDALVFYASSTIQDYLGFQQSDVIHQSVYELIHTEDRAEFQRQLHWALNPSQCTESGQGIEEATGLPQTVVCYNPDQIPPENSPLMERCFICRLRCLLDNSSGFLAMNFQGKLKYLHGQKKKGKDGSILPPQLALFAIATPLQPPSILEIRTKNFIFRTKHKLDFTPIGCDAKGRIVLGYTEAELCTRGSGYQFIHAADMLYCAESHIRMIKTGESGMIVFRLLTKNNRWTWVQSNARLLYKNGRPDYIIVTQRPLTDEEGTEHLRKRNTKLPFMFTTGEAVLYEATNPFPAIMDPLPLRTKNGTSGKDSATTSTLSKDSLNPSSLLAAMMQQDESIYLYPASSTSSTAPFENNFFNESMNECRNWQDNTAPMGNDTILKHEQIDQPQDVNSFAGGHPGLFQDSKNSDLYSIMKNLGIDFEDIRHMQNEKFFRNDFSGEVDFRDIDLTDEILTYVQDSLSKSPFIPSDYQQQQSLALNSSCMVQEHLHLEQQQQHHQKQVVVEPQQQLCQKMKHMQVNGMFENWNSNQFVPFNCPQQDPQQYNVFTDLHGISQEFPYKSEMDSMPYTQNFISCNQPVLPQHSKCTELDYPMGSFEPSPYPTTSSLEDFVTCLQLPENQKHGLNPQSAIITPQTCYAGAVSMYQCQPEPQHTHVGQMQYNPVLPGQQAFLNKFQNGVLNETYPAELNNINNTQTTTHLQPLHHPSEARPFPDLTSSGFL
Put plainly: In Vitro Assay 1: XRE-luciferase reporter assay, antagonism in human cell line (HepG2). The conditions noted are these: Assay 1: AhR-Luc Human Antagonism (IC50, nM), values marked *: kynurenine 50 μM, 6 hours.
By IC50 is commonly meant the concentration needed to halve the response being measured. Read a low IC50 as inhibition by little substance. On to `Clc1ccc(-c2cc(N3CCSCC3)nc(-c3cccnc3)n2)cc1` [Example 74, 4-(6-(4-chlorophenyl)-2-(pyridin-3-yl)pyrimidin-4-yl)thiomorpholine], for which the half-maximal inhibitory concentration (IC50) lay in the range of 100 to 1000 nM. Next, `Clc1ccc(-c2cc(NCCCN3CCOCC3)nc(-c3cccnc3)n2)cc1` [Example 75, 6-(4-chlorophenyl)-N-(3-morpholinopropyl)-2-(pyridin-3-yl)pyrimidin-4-amine]: greater than 1000 nM; `C[C@@H]1CNCCN1c1cc(-c2ccc(Cl)cc2)nc(-c2cccnc2)n1` [Example 76, (R)-4-(4-chlorophenyl)-6-(2-methylpiperazin-1-yl)-2-(pyridin-3-yl)pyrimidine]: greater than 1000 nM. For `C[C@@H]1CN(C(=O)c2ccccc2)CCN1c1cc(-c2ccc(Cl)cc2)nc(-c2cccnc2)n1` [Example 77, (R)-(4-(6-(4-chlorophenyl)-2-(pyridin-3-yl)pyrimidin-4-yl)-3-methylpiperazin-1-yl)(phenyl)methanone] the value was greater than 1000 nM; for `COC(=O)[C@H]1CN(c2cc(-c3ccc(Cl)cc3)nc(-c3cccnc3)n2)CCN1` [Example 78, methyl (R)-4-(6-(4-chlorophenyl)-2-(pyridin-3-yl)pyrimidin-4-yl)piperazine-2-carboxylate], greater than 1000 nM; for `Clc1ccc(-c2cc(N3CCN(c4cccc(Cl)c4Cl)CC3)nc(-c3cccnc3)n2)cc1` [Example 80, 4-(4-chlorophenyl)-6-(4-(2,3-dichlorophenyl)piperazin-1-yl)-2-(pyridin-3-yl)pyrimidine], greater than 1000 nM. As to `COc1ccc(OC)c(CN2CCN(c3cc(-c4ccc(Cl)cc4)nc(-c4cccnc4)n3)CC2)c1` [Example 81, 4-(4-chlorophenyl)-6-(4-(2,5-dimethoxybenzyl)piperazin-1-yl)-2-(pyridin-3-yl)pyrimidine], the IC50 is less than 10 nM. `OCCN1CCN(c2cc(-c3ccc(Cl)cc3)nc(-c3cccnc3)n2)CC1` [Example 82, 2-(4-(6-(4-chlorophenyl)-2-(pyridin-3-yl)pyrimidin-4-yl)piperazin-1-yl)ethan-1-ol]: the concentration for half-maximal inhibition (IC50) was less than 10 nM.

Take `COc1ccccc1N1CCN(c2cc(-c3ccc(Cl)cc3)nc(-c3cccnc3)n2)CC1` [Example 83, 4-(4-chlorophenyl)-6-(4-(2-methoxyphenyl)piperazin-1-yl)-2-(pyridin-3-yl)pyrimidine]: the IC50 fell in the range of 10 to 100 nM. For `CCOc1ccccc1N1CCN(c2cc(-c3ccc(Cl)cc3)nc(-c3cccnc3)n2)CC1` [Example 84, 4-(4-chlorophenyl)-6-(4-(2-ethoxyphenyl)piperazin-1-yl)-2-(pyridin-3-yl)pyrimidine] the value was greater than 1000 nM; for `Fc1ccccc1N1CCN(c2cc(-c3ccc(Cl)cc3)nc(-c3cccnc3)n2)CC1` [Example 85, 4-(4-chlorophenyl)-6-(4-(2-fluorophenyl)piperazin-1-yl)-2-(pyridin-3-yl)pyrimidine], 100 to 1000 nM; for `O=C(c1ccco1)N1CCN(c2cc(-c3ccc(Cl)cc3)nc(-c3cccnc3)n2)CC1` [Example 86, (4-(6-(4-chlorophenyl)-2-(pyridin-3-yl)pyrimidin-4-yl)piperazin-1-yl)(furan-2-yl)methanone], 10 to 100 nM. `Clc1ccc(-c2cc(N3CCN(CCc4ccccc4)CC3)nc(-c3cccnc3)n2)cc1` [Example 87, 4-(4-chlorophenyl)-6-(4-phenethylpiperazin-1-yl)-2-(pyridin-3-yl)pyrimidine] had an IC50 of 10 to 100 nM. On to `Clc1ccc(-c2cc(NCCN3CCNCC3)nc(-c3cccnc3)n2)cc1` [Example 88, 6-(4-chlorophenyl)-N-(2-(piperazin-1-yl)ethyl)-2-(pyridin-3-yl)pyrimidin-4-amine], for which the concentration for half-maximal inhibition (IC50) was greater than 1000 nM. For `Clc1ccc(-c2cc(N3CCN(c4ccccn4)CC3)nc(-c3cccnc3)n2)cc1` [Example 89, 4-(4-chlorophenyl)-6-(4-(pyridin-2-yl)piperazin-1-yl)-2-(pyridin-3-yl)pyrimidine] the value was 10 to 100 nM; for `Clc1ccc(-c2cc(N3CCN(CCN4CCOCC4)CC3)nc(-c3cccnc3)n2)cc1` [Example 91, 4-(2-(4-(6-(4-chlorophenyl)-2-(pyridin-3-yl)pyrimidin-4-yl)piperazin-1-yl)ethyl)morpholine], 10 to 100 nM. As for `Clc1ccc(-c2cc(N3CCN(C/C=C/c4ccccc4)CC3)nc(-c3cccnc3)n2)cc1` [Example 93, trans-4-(4-chlorophenyl)-6-(4-cinnamylpiperazin-1-yl)-2-(pyridin-3-yl)pyrimidine], the concentration for half-maximal inhibition (IC50) is 10 to 100 nM. In the case of `Clc1ccc(-c2cc(N3CCN(c4ccccc4)CC3)nc(-c3cccnc3)n2)cc1` [Example 95, 4-(4-chlorophenyl)-6-(4-phenylpiperazin-1-yl)-2-(pyridin-3-yl)pyrimidine], the IC50 lay within 10 to 100 nM.

Compound `CCCN1CCN(c2cc(-c3ccc(Cl)cc3)nc(-c3cccnc3)n2)CC1` [Example 96, 4-(4-chlorophenyl)-6-(4-propylpiperazin-1-yl)-2-(pyridin-3-yl)pyrimidine] showed an IC50 of less than 10 nM.

The compound `Clc1ccc(-c2cc(N3CCN(Cc4ccc5c(c4)OCO5)CC3)nc(-c3cccnc3)n2)cc1` [Example 97, 4-(4-(benzo[d][1,3]dioxol-5-ylmethyl)piperazin-1-yl)-6-(4-chlorophenyl)-2-(pyridin-3-yl)pyrimidine] displayed an IC50 of less than 10 nM. Take `OC[C@@H]1CN(c2cc(-c3ccc(Cl)cc3)nc(-c3cccnc3)n2)CCN1` [Example 98, (S)-(4-(6-(4-chlorophenyl)-2-(pyridin-3-yl)pyrimidin-4-yl)piperazin-2-yl)methanol]: the IC50 is greater than 1000 nM. For `Fc1ccc(N2CCN(c3cc(-c4ccc(Cl)cc4)nc(-c4cccnc4)n3)CC2)cc1` [Example 99, 4-(4-chlorophenyl)-6-(4-(4-fluorophenyl)piperazin-1-yl)-2-(pyridin-3-yl)pyrimidine] the value was 10 to 100 nM; for `CN1C(C)(C)CC(Nc2cc(-c3ccc(Cl)cc3)nc(-c3cccnc3)n2)CC1(C)C` [Example 100, 6-(4-chlorophenyl)-N-(1,2,2,6,6-pentamethylpiperidin-4-yl)-2-(pyridin-3-yl)pyrimidin-4-amine], greater than 1000 nM; for `Clc1ccc(-c2cc(NC3CCCNC3)nc(-c3cccnc3)n2)cc1` (stereo not shown) [Example 101, 6-(4-chlorophenyl)-N-(piperidin-3-yl)-2-(pyridin-3-yl)pyrimidin-4-amine], 100 to 1000 nM. As to `Clc1ccc(-c2cc(N3CCNCC3)nc(-c3cccnc3)n2)cc1` [Example 102, 4-(4-chlorophenyl)-6-(piperazin-1-yl)-2-(pyridin-3-yl)pyrimidine], the IC50 was in the range of 100 to 1000 nM. For `C[C@@H]1CN(c2cc(-c3ccc(Cl)cc3)nc(-c3cccnc3)n2)C[C@H](C)N1` [Example 104, Cis-4-(4-chlorophenyl)-6-(3,5-dimethylpiperazin-1-yl)-2-(pyridin-3-yl)pyrimidine] the value was greater than 1000 nM; for `CCN1CCN(c2cc(-c3ccc(Cl)cc3)nc(-c3cccnc3)n2)CC1` [Example 106, 4-(4-chlorophenyl)-6-(4-ethylpiperazin-1-yl)-2-(pyridin-3-yl)pyrimidine], 10 to 100 nM; for `CC(=O)N1CCN(c2cc(-c3ccc(Cl)cc3)nc(-c3cccnc3)n2)CC1` [Example 108, 1-(4-(6-(4-chlorophenyl)-2-(pyridin-3-yl)pyrimidin-4-yl)piperazin-1-yl)ethan-1-one], less than 10 nM. Next, `CCC1CN(c2cc(-c3ccc(Cl)cc3)nc(-c3cccnc3)n2)CCN1` (stereo not shown) [Example 109, 4-(4-chlorophenyl)-6-(3-ethylpiperazin-1-yl)-2-(pyridin-3-yl)pyrimidine]: greater than 1000 nM; `CCOC(=O)N1CCN(c2cc(-c3ccc(Cl)cc3)nc(-c3cccnc3)n2)CC1` [Example 110, ethyl 4-(6-(4-chlorophenyl)-2-(pyridin-3-yl)pyrimidin-4-yl)piperazine-1-carboxylate]: less than 10 nM. Take `O=C(O)C1CN(c2cc(-c3ccc(Cl)cc3)nc(-c3cccnc3)n2)CCN1` (stereo not shown) [Example 111, 4-(6-(4-chlorophenyl)-2-(pyridin-3-yl)pyrimidin-4-yl)piperazine-2-carboxylic acid]: the 50% inhibitory concentration (IC50) is greater than 1000 nM. Next, `COC(=O)C1CNCCN1c1cc(-c2ccc(Cl)cc2)nc(-c2cccnc2)n1` (stereo not shown) [Example 112, methyl 1-(6-(4-chlorophenyl)-2-(pyridin-3-yl)pyrimidin-4-yl)piperazine-2-carboxylate]: greater than 1000 nM; `Clc1ccc(-c2cc(N3CCNC[C@@H]3c3ccccc3)nc(-c3cccnc3)n2)cc1` [Example 113, (S)-4-(4-chlorophenyl)-6-(2-phenylpiperazin-1-yl)-2-(pyridin-3-yl)pyrimidine]: greater than 1000 nM; `Cc1ccccc1N1CCN(c2cc(-c3ccc(Cl)cc3)nc(-c3cccnc3)n2)CC1` [Example 114, 4-(4-chlorophenyl)-2-(pyridin-3-yl)-6-(4-(o-tolyl)piperazin-1-yl)pyrimidine]: greater than 1000 nM.
